28 sequences from patent publication US20260041747A1, “T CELL EPITOPES ASSOCIATED WITH TYPE 1 DIABETES” (Repertoire Immune Medicines, Inc., priority 2022, published 2026) can be followed below.

One experiment relates to recombinant TCRs (rTCRs). The experiment in a line: Activation (CD69+) of J76-CD8-NFAT-GFP cells expressing recombinant TCRs by peptide-loaded HLA-A*02:01+ T2 cells. Type of experiment: cell-based, human. To be noted: 50 μM peptide, T2 cells 1:1, 16 hours. An excerpt: This example describes functional validation of the T cell epitopes described in Examples 2 and 3, and their cognate TCRs, by assessing the ability of certain T cell epitopes, when presented by APCs that express HLA-A*02:01, to activate an immortalized T cell line expressing recombinant TCRs sequenced from the T cells of T1D patients and healthy donors. […] The relevance of certain identified T1D associated epitopes was evidenced by binding and activation of cognate TCRs in primary T cells or recombinant T cell lines.
(§1) Briefly, native paired alpha and beta TCR sequences identified from human tissues, such as PBMC or islet-derived CD8 T cells, were cloned into the pLVX-EFla lentiviral backbone (Takara) as a bicistronic TCRB-T2A-TCRa vector. TCRa/B/Jurkat J76 cells, which were engineered to express CD8 and a nuclear factor of activated T cells (NFAT)-green fluorescent protein (GFP) reporter (referred to as J76-CD8-NFAT-GFP), were transduced with lentiviral vectors produced from HEK 293T cells. To assess functional activity of the recombinant TCRs (rTCRs), J76-CD8-NFAT-GFP expressing recombinant TCRs were incubated at a 1:1 ratio with the HLA-A*02:01^+ T2(174×CEM.T2) (ATCC CRL-1991) lymphoblastic cell line, with a final concentration of 50 μM of cognate peptide (Vivitide, >95% pure) or 0.5% dimethylsulfoxide (DMSO, vehicle). Cell mixtures were incubated at 37° C., 5% CO2 for 16 hours. Activation of the T cells was assessed by flow cytometry using anti-CD3-PE-Cy7 (Clone UCHT1) and anti-CD69-APC (Clone FN50) antibodies, and analyzed using the Satorius iQue Screener Plus and FlowJo v10. Activation of rTCR-expressing cell lines was determined by comparing the mean percentage of CD69^+ cells out of CD3^+ cells, in cell mixtures with cognate peptide-loaded T2 cells, with the mean percentage in cell mixtures with no peptide (DMSO control).

Experiment [1] concerns PBMC-derived CD8+ T cells from T1D patients. Description: Binding of HLA-A*02:01 barcoded pMHC tetramer library to PBMC-derived CD8+ T cells of T1D patients and healthy donors. On the set-up: species or system human. To be noted: for Normalized T1D prevalence: average number of times the epitope in the pMHC tetramer library was bound by cognate TCR in the T1D cohort, 8 T1D patients, 1 nM per tetramer; for % Presence in T1D samples: percentage of T1D samples in which the epitope response was observed. The text has this:
This example describes assessment of peptide binding to peripheral T cells from 8 short clinical duration T1D patients and 21 healthy donors who are HLA-matched without a history of diabetes, thereby to identify T1D-associated, HLA-A*02:01-restricted T cell epitopes.
Briefly, in the high-throughput screen described in Example 1, a library of HLA-A*02:01 oligo-barcoded pMHC tetramers was created as described in Francis et al., (2022) Sci Immunol 21:eabk3070. This tetramer library was composed of individual pMHCs representing hundreds of different epitopes identified in Example 1. CD8+ T cells were derived from frozen peripheral blood mononuclear cells (PBMCs) of human donors. CD8+ T cells were enriched via magnetic-activated cell separation from thawed PBMCs via commercially available negative enrichment kits (Miltenyi). Resulting enriched CD8+ T cells were counted and a standard input of 1 million CD8+ T cells per subject were then stained with tetramer libraries at final concentration of 1 nM per pMHC tetramer, in the presence of 2 mg/mL salmon sperm DNA in PBS with 0.5% BSA solution for 20 min. Stained cells were barcoded by commercially available anti-TCR antibody-derived tags (ADT, clone IP26, Biolegend). Tetramer bound cells were then labeled with phycoerythrin (PE) conjugated anti-DKDDDDK-Flag antibody (Biolegend) followed by dead cell discrimination using 7-amino-actinomycin D (7-AAD). Live, tetramer positive cells were sorted using a Sony MA900 Sorter. Following sorting, tetramer positive cells were single-cell sequenced using commercially available systems and protocols from 10× Genomics. Post-sequencing cells were demultiplexed and passed through standard quality control workflows (removal of duplicates, damaged cells, empty droplets, etc.) as described in Francis et al., (2022) Sci Immunol 21:eabk3070. Demultiplexed, tetramer positive cells were scored for pMHC-TCR interactions as described in Francis et al., (2022) Sci Immunol 21:eabk3070. Non-control pMHC-TCR putative binders passing quality control filters and scoring were used for analysis. The resulting pMHC-TCR matrix reactivity map was analyzed by abundance for “normalized T1D prevalence”, “relative enrichment”, and “% presence in T1D samples.” Normalized prevalence was defined as the average number of times an epitope in the pMHC tetramer library was bound by cognate TCR in the T1D cohort. […] Finally, for an epitope to be considered of value, it must pass prevalence and enrichment thresholds and have cognate T cells present in at least 75 percent of T1D subjects.

In experiment [2] the test system is pancreatic islet infiltrating T cells. Description: Binding of pMHC library to polyclonally expanded islet-derived T cell lines from T1D organ donors. Further details: species or system human. To be noted: single high abundance TCR. The text has this:
This example describes assessment of peptides that bind to T cell lines derived from living pancreatic islets of recently deceased pancreatic organ donors with T1D, thereby to identify T1D-associated, HLA-A*02:01-restricted T cell epitopes directly associated with islet infiltrating T cells. This assay, using specialized post-mortem processing of difficult-to-obtain pancreas biopsy, further confirmed the association of selected epitopes with T1D, given that disease-associated T cell epitopes generally result in infiltration of T cells that can cause inflammation and subsequent beta cell cytotoxicity in the pancreas.
Briefly, pancreatic slices were sourced from individuals with suspected or confirmed Type I diabetes diagnosis at the time of death by the Network of Pancreatic Organ Donors. Within in 72 hours of death, pancreatic islets were macrodissected from the slices under sterile conditions. These islets were cultured with a cocktail of cytokines and immune stimulating factors that allow T cell expansion independent of cognate TCR-pMHC interaction, using the polyclonal T cell expansion method described in Babon et al., (2016) Nat Med 22:1482-1487. The resulting T cell lines were then screened against pMHC libraries described in Example 2.
This epitope bound to a single, high abundance TCR derived from an individual that was diagnosed with Type I diabetes 4 months prior to death. […]

A further experiment has as its system islet-derived rTCR. The experiment in a line: Peptide dose-response of islet-derived rTCR expressed in Jurkat T cells. Type of experiment: cell-based, human. To be noted: Jurkat T cells expressing islet-derived rTCR, pulsed with 0.001 to 100 μM peptide; approximate affinity of pMHC-rTCR interaction; read-out: EC50 (half maximal effective concentration). Here is the method: FIG. 1 depicts a dose-response for the islet-derived rTCR described in Table 5 when pulsed with a range of cognate peptide from 0.001 to 100 μM.
This epitope bound to a single, high abundance TCR derived from an individual that was diagnosed with Type I diabetes 4 months prior to death. […] The EC50 value represents an approximate affinity for the pMHC-rTCR[…] interaction.
as §1, with “To assess functional activity of the recombinant TCRs (rTCRs), J76-CD8-NFAT-GFP expressing recombinant TCRs were incubated at a 1:1 ratio with the HLA-A*02:01^+ T2(174×CEM.T2) (ATCC CRL-1991) lymphoblastic cell line, with a final concentration of 50 μM of cognate peptide (Vivitide, >95% pure) or 0.5% dimethylsulfoxide (DMSO, vehicle). Cell mixtures were incubated at 37° C., 5% CO2 for 16 hours.” left out

QLLFSLPKL: in the experiment with recombinant TCRs (rTCRs) (TCR_16, source PBMC), the “Mean % CD69+ T cells with cognate peptide” value (shortened to “Mean % CD69+ T cells”) is on record as 61.55%.
For YAPWELLSV, in experiment [1], the “Normalized T1D prevalence” value is recorded as 2.44 and the “% Presence in T1D samples” value came out at 87.5%. Besides, the “Mean % CD69+ T cells” value in the experiment with recombinant TCRs (rTCRs) (TCR_05, source PBMC) is 38.4%. In addition, the “Mean % CD69+ T cells” value in the experiment with recombinant TCRs (rTCRs) (TCR_13, source PBMC) was found to be 17.55%.
MVWESGCVV: in experiment [1], the “Normalized T1D prevalence” value came out at 16.313 and the “% Presence in T1D samples” value is given as 100%.
For KLNWDLHTA the same measures were 3.63 and 87.5%.
The matching figures for FVAGLFVML: 1.88 and 87.5%.
For FLSWALNSC the same measures were 2.50 and 100%.
KLSPSQHLA: in experiment [1], the “Normalized T1D prevalence” value is listed as 1.06 and the “% Presence in T1D samples” value is listed as 87.5%.
For LMSGILGLA the same measures were 2.44 and 87.5%.
With KMAKDWKTV, in experiment [1], the “Normalized T1D prevalence” value was found to be 2.38 and the “% Presence in T1D samples” value stood at 100%. Also, in the experiment on recombinant TCRs (rTCRs) (TCR_12, source PBMC), the “Mean % CD69+ T cells” value is given as 18.65%.
Consider GQWAGGAYA, for which, in experiment [1], the “Normalized T1D prevalence” value is recorded as 1.81 and the “% Presence in T1D samples” value is 87.5%.
The matching figures for FLPYDHARI: 2.94 and 87.5%.
The matching figures for LQFRGSMLA: 2.00 and 100%.
In the case of VLVNKVLLV, in experiment [1], the “Normalized T1D prevalence” value was determined as 1.69 and the “% Presence in T1D samples” value was 87.5%. Moreover, the “Mean % CD69+ T cells” value in the experiment with recombinant TCRs (rTCRs) (TCR_10, source PBMC) was 29.45%.
In the case of QALDVGWLV, in experiment [1], the “Normalized T1D prevalence” value amounted to 1.19 and the “% Presence in T1D samples” value stood at 87.5%.
Turning to SVALWNNAV, in experiment [1], the “Normalized T1D prevalence” value is recorded as 1.13 and the “% Presence in T1D samples” value came to 87.5%.
For ALAWAVWLA the same measures were 1.94 and 87.5%.
For FSESILTYV the same measures were 2.88 and 87.5%.
As for LLPPRVLPA, the “Mean % CD69+ T cells” value with recombinant TCRs (rTCRs) (TCR_15, source PBMC) is on record as 32.25%.
Consider TLMAVIGGL, for which, in experiment [1], the “Normalized T1D prevalence” value is 3.63 and the “% Presence in T1D samples” value is 100%.
Regarding TLSWALYEL, the “Normalized T1D prevalence” value in experiment [1] worked out at 2.50. Further, the “% Presence in T1D samples” value in experiment [1] came out at 100%. Also, the “Mean % CD69+ T cells” value stood at 59.8% in the experiment on recombinant TCRs (rTCRs) (TCR_01, source PBMC); 58% in the experiment with recombinant TCRs (rTCRs) (TCR_02, source PBMC); 48% in the experiment on recombinant TCRs (rTCRs) (TCR_04, source PBMC); 39% in the experiment on recombinant TCRs (rTCRs) (TCR_06, source PBMC); 33.55% in the experiment on recombinant TCRs (rTCRs) (TCR_07, source PBMC); 15.45% with recombinant TCRs (rTCRs) (TCR_14, source PBMC).
Take ALMGQAAGV: in experiment [1], the “Normalized T1D prevalence” value was found to be 1.50 and the “% Presence in T1D samples” value is recorded as 87.5%.
Regarding NLLYPVPLV, the “Normalized T1D prevalence” value in experiment [1] stood at 2.81. Besides, in experiment [1], the “% Presence in T1D samples” value was 87.5%. For the same sequence, the “Mean % CD69+ T cells” value with recombinant TCRs (rTCRs) (TCR_03, source PBMC) was 49.75%; in the experiment on recombinant TCRs (rTCRs) (TCR_08, source PBMC), 27.25%; in the experiment with recombinant TCRs (rTCRs) (TCR_11, source PBMC), 21.65%.
For TLVTLCHYA, in experiment [1], the “Normalized T1D prevalence” value was 1.94 and the “% Presence in T1D samples” value is listed as 87.5%.
In the case of TLSKPSPMPV, in experiment [1], the “Normalized T1D prevalence” value came to 1.06 and the “% Presence in T1D samples” value is 87.5%.
On to VLQASSISA, for which, in experiment [1], the “Normalized T1D prevalence” value was determined as 3.19 and the “% Presence in T1D samples” value was determined as 100%.
Take TLDIFLEIV: in the experiment with recombinant TCRs (rTCRs) (TCR_17, source PBMC), the “Mean % CD69+ T cells” value worked out at 36.7%.
With VIGDWLNLI, the “Normalized T1D prevalence” value in experiment [1] came out at 2.188. Also, the “% Presence in T1D samples” value in experiment [1] came to 75%. The “Binding to islet-derived T cells from T1D patients” value in experiment [2] is given as “identified as binding”. In addition, the EC50 in the experiment on islet-derived rTCR was determined as 2.2 µM. Moreover, the “Mean % CD69+ T cells” value is listed as 26.15% in the experiment with recombinant TCRs (rTCRs) (TCR_09, source PBMC); 26.15% with recombinant TCRs (rTCRs) (TCR_18, source PBMC); 28.8% in the experiment with recombinant TCRs (rTCRs) (TCR_19, source islet).
On to NLYTFVLKV, for which, in experiment [1], the “Normalized T1D prevalence” value is 2.56 and the “% Presence in T1D samples” value worked out at 87.5%.
